# Data as given in the NIST ThermoML archive (doi:10.1016/j.tca.2017.08.010).
# Assay: mn = molality of the nth substance listed, in mol/kg
# Conditions: 101 kPa, Liquid, Optical method
"binary diffusion coefficient (288.15 K, m1 = 0.023) [m2/s]","binary diffusion coefficient (288.15 K, m1 = 0.071) [m2/s]","binary diffusion coefficient (288.15 K, m1 = 0.119) [m2/s]","binary diffusion coefficient (293.15 K, m1 = 0.023) [m2/s]","binary diffusion coefficient (293.15 K, m1 = 0.071) [m2/s]","binary diffusion coefficient (293.15 K, m1 = 0.119) [m2/s]","binary diffusion coefficient (298.15 K, m1 = 0.023) [m2/s]","binary diffusion coefficient (298.15 K, m1 = 0.071) [m2/s]","binary diffusion coefficient (298.15 K, m1 = 0.119) [m2/s]","binary diffusion coefficient (303.15 K, m1 = 0.023) [m2/s]","binary diffusion coefficient (303.15 K, m1 = 0.071) [m2/s]","binary diffusion coefficient (303.15 K, m1 = 0.119) [m2/s]","binary diffusion coefficient (308.15 K, m1 = 0.023) [m2/s]","binary diffusion coefficient (308.15 K, m1 = 0.071) [m2/s]","binary diffusion coefficient (308.15 K, m1 = 0.119) [m2/s]","binary diffusion coefficient (313.15 K, m1 = 0.023) [m2/s]","binary diffusion coefficient (313.15 K, m1 = 0.071) [m2/s]","binary diffusion coefficient (313.15 K, m1 = 0.119) [m2/s]","binary diffusion coefficient (298.15 K, m1 = 0.342) [m2/s]",SMILES
9.16e-10,6.72e-10,8.56e-10,1.11e-09,8.44e-10,1.04e-09,1.32e-09,1.06e-09,1.26e-09,1.54e-09,1.32e-09,1.47e-09,1.79e-09,1.59e-09,1.71e-09,2.07e-09,1.92e-09,1.99e-09,,CN1c2ccccc2Sc2ccccc21 [10-methylphenothiazine] + COC(=O)OC
,,,,,,,,,,,,,,,,,,1.81e-09,[Cl-].[K+] [potassium chloride] + O
